Reference: US20260224675A1, “METHOD OF INHIBITING DEGRADING PROTEASE ACTIVITY IN THE SKIN” (The Regents of the University of California, priority 2023, published 2026)

How the values were obtained:
Assay type in all cases: in vivo
[1] = tested on: mucin coat in the small intestine; assay: Mucin coat in rat small intestine, alcian blue labeling; settings: old rats (104 weeks), oral in drinking water, two weeks, vs old non-treated
Description: (§1) Male Wistar rats (Harlan Sprague Dawley Inc., Indianapolis, IN) at maturity (4 months, 300 to 350 gm) and old age (24 months, 375 to 450 gm) were included in the study. The animals were maintained on standard laboratory chow (8604 Teklad rodent diet; Harlan Laboratories, Indianapolis, IN) without restriction and water ad libitum and maintained in separated room without pathogen-free conditions. […] A subgroup of old animals was given over two weeks a pancreatic serine protease (trypsin) inhibitor (tranexamic acid, 14 days) in drinking water (137 mM, exchanged daily) which at a minimum fluid consumption of 40 ml/day amounts to a minimum dose of 0.39 gm/kg/day for 350 gm body weight. […]
(§2) Images of the immunolabel density were recorded from low power overviews of the tissue (10× objective, numerical aperture 0.25) under standard light conditions. Images were digitally analyzed to minimize operator error (NIH Image, 1.61, public domain software, spatial resolution of 640×480 pixel).
The intensity of the immune substrate label was measured after color extraction in form of light intensity (1 corresponding to white, 256 corresponding to black). The mean label density per group (with 3 animals per group) was determined from the average label density per animal (determined from 5 tissue sections/animal, 30 images/section).

pancreatic trypsin [2] = assay: Pancreatic trypsin accumulation in rat small intestine, immunohistochemistry; settings: old rats, oral, two weeks; increase in old vs young rats
Description: (§3) Male Wistar rats (Harlan Sprague Dawley Inc., Indianapolis, IN) at maturity (4 months, 300 to 350 gm) and old age (24 months, 375 to 450 gm) were included in the study. The animals were maintained on standard laboratory chow (8604 Teklad rodent diet; Harlan Laboratories, Indianapolis, IN) without restriction and water ad libitum and maintained in separated room without pathogen-free conditions. […] A subgroup of old animals was given over two weeks a pancreatic serine protease (trypsin) inhibitor (tranexamic acid, 14 days) in drinking water (137 mM, exchanged daily) which at a minimum fluid consumption of 40 ml/day amounts to a minimum dose of 0.39 gm/kg/day for 350 gm body weight.
(§4) Small intestine: Full thickness tissue blocks of the wall of proximal jejunum (3 by 5 mm) were fixed from all sides in 10% formaldehyde. Pancreatic trypsin and amylase were detected with primary (MoAb (D-1) and MoAb (G-10), respectively), and secondary antibodies labeled with DAB (Peroxidase Substrate Kit, ab64238, ABCAM).
as §2, with “pixel). […]” for “pixel).”

amylase = assay: Pancreatic amylase accumulation in rat small intestine, immunohistochemistry; settings: old rats, oral, two weeks; increase in old vs young rats
Description: as §3, §4
as §2, with “pixel). […]” for “pixel).”

pancreatic trypsin [3] = assay: Pancreatic trypsin accumulation in rat skin tissue, immunohistochemistry; settings: old rats, two weeks
Description: as §1
To determine on the tissue sections the immunolabel density and distribution of pancreatic serine proteases, pancreatic trypsin MoAb (D-1): sc-137077(Santa Cruz) primary antibody was used, followed by secondary antibodies (MP-7601 for anti-rabbit IgG; MP-7602 for anti-mouse IgG; ImmPRESS Excel staining kit peroxidase). […] No counterstain was applied to facilitate quantitative label intensity measurements and since cellular and vascular structures are readily identified. […] All procedures were carried out under standardized conditions to permit quantitative comparison of label densities. […]

collagen = assay: Rat skin tissue collagen fragmentation, collagen hybridizing peptide (B-CHP) labeling; settings: old rats, two weeks
Description: as §1
Tissue sections were stained with B-CHP (stock solution, 150 mM; final applied solution 7.5. mM). […] The B-CHP label intensity on the sections was recorded by digital microscopy.
as §2
The intensity of the immune substrate label was measured after color extraction in form of light intensity (1 corresponding to white, 256 corresponding to black). […]

NC[C@H]1CC[C@H](C(=O)O)CC1 [tranexamic acid]
mucin coat in the small intestine (alcian blue label) [1]: restoration of the mucin coat | pancreatic trypsin label density in the small intestine (pancreatic trypsin [2]): attenuated | amylase label density in the small intestine (amylase): attenuated | pancreatic trypsin accumulation in skin tissue (pancreatic trypsin [3]): prevents trypsin accumulation | collagen fragmentation in skin tissue (CHP) (collagen): prevents collagen fragmentation
